Patent US5674876A, “.rho.-heteroatom-substituted phenols and uses thereof” (Research Development Foundation, priority 1995, dated 1997)

Assays:
Type in all cases: cell-based
Design in all cases: key to Inhibition (%) of DNA synthesis: TOXIC (viability): TOXIC: the compound at this concentration killed the cells or greatly lowered their viability
[1] = tested on: MDA MB 435 (Metastic Human Breast Cancer Cell Line); assay: Inhibition of DNA synthesis (3H-TdR uptake) / proliferation, MB-435; conditions: for inhibition at 0.1 µg/mL / inhibition at 1 µg/mL / inhibition at 5 µg/mL / inhibition at 10 µg/mL / inhibition at 20 µg/mL: Homo sapiens, MDA-MB-435; for inhibition at 0.1 µg/mL: MB-435, 0.1 μg/mL; for inhibition at 0.1 µg/mL / inhibition at 1 µg/mL / inhibition at 5 µg/mL / inhibition at 10 µg/mL / inhibition at 20 µg/mL / Inhibition (%) of DNA synthesis: TOXIC (viability): 48 h; for inhibition at 1 µg/mL: MB-435, 1 μg/mL
Description: (§1) Cells were cultured in the following media: 1) MDA MB 435 cells were cultured in Minimum Essential Media (MEM-HyClone, Logan, Utah) supplemented with 5% heat inactivated fetal bovine serum (HyClone), 2 mM glutamine (Sigma, St. Louis, Mo.), 1 mM sodium pyruvate (Sigma), 1X MEM Non-Essential Amino Acids (Sigma), 2X MEM Vitamins (Sigma), and 100 IU/mL penicillin/100 μg/mL streptomycin (HyClone); 2) MCF-7 McGuire cells were cultured in Minimum Essential Media (MEM-HyClone, Logan, Utah) supplemented with 5% heat inactivated fetal bovine serum (HyClone), 2 mM glutamine (Sigma, St. Louis, Mo.), and 100 IU/mL penicillin/100 μg/mL streptomycin (HyClone); 3) HL-60 cells were cultured in Iscoves Modified Dulbecco's Media (IMDM-HyClone, Logan, Utah) supplemented with 5% heat inactivated fetal bovine serum (HyClone), 2 mM glutamine (Sigma, St. Louis, Mo.), 1 mM sodium pyruvate (Sigma), 1X MEM Non-Essential Amino Acids (Sigma), 2X MEM Vitamins (Sigma), and 100 IU/mL penicillin/100 μg/mL streptomycin (HyClone); 2) MCF-7 McGuire cells were cultured in Minimum Essential Media (MEM-HyClone, Logan, Utah) supplemented with 5% heat inactivated fetal bovine serum (HyClone), 2 mM glutamine (Sigma, St. Louis, Mo.), and 100 IU/mL penicillin/100 μg/mL streptomycin (HyClone); 3) HL-60 cells were cultured in Iscoves Modified Dulbecco's Media (IMDM-HyClone, Logan, Utah) supplemented with 5% heat inactivated fetal bovine serum (HyClone), 2 mM glutamine (Sigma, St. Louis, Mo.), and 100 IU/mL penicillin/100 μg/mL streptomycin (HyClone).
(§2) All compounds were handled as if they were light sensitive. All compounds were initially dissolved in absolute ethanol and subsequently diluted to a final concentration of 0.5% ethanol with the appropriate medium.
(§3) For the bioassay, all cells were used at 2.5×10^5 /mL. Cells were treated with each of the compounds at concentrations of 20, 10, 5, 1, 0.1, and 0.01 μg/mL , and 200 μl of each treatment group were plated in quadruplicate in a 96 well culture plate (Corning, Corning N.Y.). Plates were done in duplicate, one plate to be used for viability testing and the other plate to examine ^3 H-TdR uptake (DNA synthesis).
(§4) Plates were cultured for 48 hours at 37° C., 5% CO2. Eight hours prior to the end of incubation, ^3 H-TdR was added to one of the duplicate plates and incubation continued for 8 hours. The cells were then harvested (trypsinization was required to harvest MDA MB 435 and MCF-7 McGuire). At the end of the incubation, the cells were removed from the wells (of the duplicate plate--no radioisotope added) and viability checked by the Trypan Blue Exclusion method. Percent viability and percent suppression of each treatment group were calculated.
(§5) With respect to the data shown in the Tables below, the data is arranged from greatest percent inhibition of DNA synthesis to lowest. […] "NT" refers to "Not Tested". The cells were cultured for 48 hours, pulsed 8 hours with tritiated thymidine, harvested and counted. MDA MB 435 is the abbreviation for the Metastic Human Breast Cancer Cell Line. MCF-7 McGuire is the abbreviation for the Estrogen Responsive Human Breast Cancer Cell Line and HL-60 is the Human Promyelocytic Leukemia Cell Line.

[2] = tested on: MCF-7 McGuire (Estrogen Responsive Human Breast Cancer Cell Line); assay: Inhibition of DNA synthesis (3H-TdR uptake) / proliferation, MCF-7; conditions: for inhibition at 0.1 µg/mL / inhibition at 1 µg/mL / inhibition at 5 µg/mL / inhibition at 10 µg/mL / inhibition at 20 µg/mL: Homo sapiens, MCF7; for inhibition at 0.1 µg/mL: MCF-7, 0.1 μg/mL; for inhibition at 1 µg/mL: MCF-7, 1 μg/mL; for inhibition at 5 µg/mL: MCF-7, 5 μg/mL
Description: as §1, §2, §3, §4, §5

[3] = tested on: HL-60 (Human Promyelocytic Leukemia Cell Line); assay: Inhibition of DNA synthesis (3H-TdR uptake) / proliferation, HL-60; conditions: for inhibition at 0.1 µg/mL / inhibition at 1 µg/mL / inhibition at 5 µg/mL / inhibition at 10 µg/mL / inhibition at 20 µg/mL: Homo sapiens; for inhibition at 0.1 µg/mL: HL-60, 0.1 μg/mL; for inhibition at 1 µg/mL: HL-60, 1 μg/mL; for inhibition at 5 µg/mL: HL-60, 5 μg/mL
Description: as §1, §2, §3, §4, §5

For CC(=O)Oc1c(C)cc2c(c1C)C(C)CN2C(=O)C(C)C (stereo not drawn) [Compound 12b, N-Isobutyryl-5-acetoxy-3,4,6-trimethylindoline], the inhibition at 0.1 µg/mL [1] was 1%, the inhibition at 1 µg/mL [1] was 19% and the inhibition at 5 µg/mL ([1]; MB-435, 5 μg/mL) was 32%. For the same compound, the inhibition at 10 µg/mL ([1]; MB-435, 10 μg/mL) was 24%, the inhibition at 20 µg/mL ([1]; MB-435, 20 μg/mL) was 41% and the “inhibition of proliferation (in words)” value ([1]; MB-435, 5-20 μg/mL) was “significantly inhibited the proliferation”. For the same compound, the inhibition at 0.1 µg/mL ([2]; 48 h) was 20%, the inhibition at 1 µg/mL ([2]; 48 h) was 47% and the inhibition at 5 µg/mL ([2]; 48 h) was 38%. The inhibition at 10 µg/mL ([2]; MCF-7, 10 μg/mL, 48 h) was 58%, the inhibition at 20 µg/mL ([2]; MCF-7, 20 μg/mL, 48 h) was 70% and the “inhibition of proliferation (in words)” value ([2]; MCF-7, 5-20 μg/mL) was “significantly inhibited the proliferation”. The “inhibition of proliferation (in words)” value ([3]; HL-60, 5-20 μg/mL) was “significantly inhibited the proliferation”, the inhibition at 0.1 µg/mL ([3]; 48 h) was 0% and the inhibition at 1 µg/mL ([3]; 48 h) was 2%. The inhibition at 5 µg/mL ([3]; 48 h) was 32%, the inhibition at 10 µg/mL ([3]; HL-60, 10 μg/mL, 48 h) was 67% and the inhibition at 20 µg/mL ([3]; HL-60, 20 μg/mL, 48 h) was 46%.
For CC(=O)Oc1c(C)c2c3c(c1C)CCCN3CCC2 [Compound 6, 9-Acetoxy-8,10-dimethyljulolidine], the inhibition at 0.1 µg/mL [1] was 3%, the inhibition at 1 µg/mL [1] was 0% and the inhibition at 5 µg/mL ([1]; MB-435, 5 μg/mL) was 80%. The “inhibition of proliferation (in words)” value ([1]; MB-435, 5 μg/mL) was “significantly inhibited the proliferation”, the “Inhibition (%) of DNA synthesis: TOXIC (viability)” value (“Inhibition (%) of DNA synthesis” below) ([1]; MB-435, 10 μg/mL) was “TOXIC” and the “Inhibition (%) of DNA synthesis” value ([1]; MB-435, 20 μg/mL) was “TOXIC”. The “inhibition of proliferation (in words)” value ([1]; MB-435, 10-20 μg/mL) was “significantly inhibited the proliferation”, the inhibition at 0.1 µg/mL ([2]; 48 h) was 0% and the inhibition at 1 µg/mL ([2]; 48 h) was 10%. For the same compound, the inhibition at 5 µg/mL ([2]; 48 h) was 13%, the inhibition at 10 µg/mL ([2]; MCF-7, 10 μg/mL, 48 h) was 37% and the “inhibition of proliferation (in words)” value ([2]; MCF-7, 10 μg/mL) was “significantly inhibited the proliferation”. For the same compound, the “Inhibition (%) of DNA synthesis” value ([2]; MCF-7, 20 μg/mL, 48 h) was “TOXIC”, the “inhibition of proliferation (in words)” value ([2]; MCF-7, 10-20 μg/mL) was “significantly inhibited the proliferation” and the “inhibition of proliferation (in words)” value ([3]; HL-60, 10 μg/mL) was “significantly inhibited the proliferation”. For the same compound, the “Inhibition (%) of DNA synthesis” value ([3]; HL-60, 20 μg/mL, 48 h) was “TOXIC”, the “effect on HL-60 cells (in words)” value ([3]; HL-60, no dose stated) was “virtually no effect” and the inhibition at 0.1 µg/mL ([3]; 48 h) was 3%. The inhibition at 1 µg/mL ([3]; 48 h) was 24%, the inhibition at 5 µg/mL ([3]; 48 h) was 59% and the inhibition at 10 µg/mL ([3]; HL-60, 10 μg/mL, 48 h) was 89%.
With Cc1c(C)c2c(c(C)c1O)CC1(CC1)O2 [Compound 32] the inhibition at 0.1 µg/mL [1] was 6%, the inhibition at 1 µg/mL [1] was 6% and the inhibition at 5 µg/mL ([1]; MB-435, 5 μg/mL) was 15%. The inhibition at 10 µg/mL ([1]; MB-435, 10 μg/mL) was 30%, the inhibition at 20 µg/mL ([1]; MB-435, 20 μg/mL) was 43% and the “inhibition of proliferation (in words)” value ([1]; MB-435, 10-20 μg/mL) was “significantly inhibited the proliferation”. It also gave an inhibition at 0.1 µg/mL ([2]; 48 h) of 0%, an inhibition at 1 µg/mL ([2]; 48 h) of 10% and an inhibition at 5 µg/mL ([2]; 48 h) of 5%. The inhibition at 10 µg/mL ([2]; MCF-7, 10 μg/mL, 48 h) was 18%, the inhibition at 20 µg/mL ([2]; MCF-7, 20 μg/mL, 48 h) was 22% and the “inhibition of proliferation (in words)” value ([2]; MCF-7, 10-20 μg/mL) was “significantly inhibited the proliferation”. For the same compound, the “inhibition of proliferation (in words)” value ([3]; HL-60, 10-20 μg/mL) was “significantly inhibited the proliferation”, the inhibition at 0.1 µg/mL ([3]; 48 h) was 11% and the inhibition at 1 µg/mL ([3]; 48 h) was 5%. It also gave an inhibition at 5 µg/mL ([3]; 48 h) of 12%, an inhibition at 10 µg/mL ([3]; HL-60, 10 μg/mL, 48 h) of 17% and an inhibition at 20 µg/mL ([3]; HL-60, 20 μg/mL, 48 h) of 26%.
CC(=O)N1CC(C)(C)c2c(C)c(O)c(C)c(C)c21 [Compound 31b] was tested, and the inhibition at 0.1 µg/mL [1] was 0%, the inhibition at 1 µg/mL [1] was 0% and the inhibition at 5 µg/mL ([1]; MB-435, 5 μg/mL) was 0%. For the same compound, the inhibition at 10 µg/mL ([1]; MB-435, 10 μg/mL) was 15%, the inhibition at 20 µg/mL ([1]; MB-435, 20 μg/mL) was 33% and the “inhibition of proliferation (in words)” value ([1]; MB-435, 10-20 μg/mL) was “significantly inhibited the proliferation”. For the same compound, the inhibition at 0.1 µg/mL ([2]; 48 h) was 0%, the inhibition at 1 µg/mL ([2]; 48 h) was 0% and the inhibition at 5 µg/mL ([2]; 48 h) was 29%. For the same compound, the inhibition at 10 µg/mL ([2]; MCF-7, 10 μg/mL, 48 h) was 18%, the inhibition at 20 µg/mL ([2]; MCF-7, 20 μg/mL, 48 h) was 22% and the “inhibition of proliferation (in words)” value ([2]; MCF-7, 10-20 μg/mL) was “significantly inhibited the proliferation”. For the same compound, the “inhibition of proliferation (in words)” value ([3]; HL-60, 10-20 μg/mL) was “significantly inhibited the proliferation”, the inhibition at 0.1 µg/mL ([3]; 48 h) was 0% and the inhibition at 1 µg/mL ([3]; 48 h) was 0%. The inhibition at 5 µg/mL ([3]; 48 h) was 6%, the inhibition at 10 µg/mL ([3]; HL-60, 10 μg/mL, 48 h) was 15% and the inhibition at 20 µg/mL ([3]; HL-60, 20 μg/mL, 48 h) was 28%.
